Data set [1] in a line: Bidirectional Caco-2 permeability assay. The data set is classed as in vitro ADME. Particulars: human, Caco-2. The essentials: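 Caco-2 monolayers (passage 39, 19-day culture, TEER >600 Ohms/cm^2) dosed A→B and B→A in duplicate, 90 min at 37 °C without shaking. Donor and receiver samples at 10 and 90 min quantified by LC/MS/MS. Papp (cm/s), efflux ratio and recovery calculated; ER >2 flags potential efflux substrate.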

A short description of data set [2]: Stability in human fasted-state simulated gastric fluid and fasted-state simulated intestinal fluid. The data set is classed as physicochemical. Particulars: timepoints 0-120 min. Here is the method:
The chemical stability of example compounds was determined using human fasted-state simulated gastric fluid, and fasted-state simulated intestinal fluid, prepared as follows.
• Weigh 1.0 g NaCl and dissolved it in 0.49 L water • Adjust pH value to 1.2, and adjust volume to 0.5 L in water • Filter the NaCl/HCl buffer through a 0.22 μm filter • Weigh 3.0 mg FaSSGF powder (Vendor: Biorelevant, catalog #FFF01), dissolve it in 50 mL NaCl/HCl buffer • Dissolve the FaSSGF powder in NaCl/HCl buffer and make up the volume to 50 mL • Store at 4° C. for future use.
• Weigh 0.695 g NaOH, 1.115 g maleic acid and 2.005 g NaCl, and dissolve in 0.49 L water • Adjusted the pH value to 6.8 and adjust volume to 0.5 L with water • Filter the maleic acid buffer through a 0.22 μm filter • Weigh 89.5 mg FaSSIF-V2 powder (Vendor: Biorelevant catalog #V2FAS01), dissolve in 50 mL maleic buffer • Dissolve the FaSSIF-V2 powder in maleic buffer and make up the volume to 50 mL • Store at 4° C. for future use.
Briefly, test compounds were prepared as 50 μM working solutions in DMSO, and 2 μL test compound working solution was added to 98 μL of each buffer respectively in six tubes (for six timepoints, 0, 5, 15, 30, 60, and 120 min) and gently mixed. At each corresponding timepoint, the reaction was stopped by addition of 300 μL of quenching solution (methanol solution of 5 ng/mL terfenadine and 10 ng/mL of tolbutamide). Each tube was vortexed for 1 min, centrifuged at 4,000 rpm at 4° C. for 15 min, then 200 μL of supernatant was removed. The half-life of each example compound was determined using LC-MS/MS analysis, using the internal standards present in the quenching solution.

Where [3] appears, read: fasted-state simulated gastric fluid (FaSSGF), human fasted-state simulated gastric fluid, pH 1.2, LC-MS/MS, read-out: FaSSGF t1/2.
Setting [4] is: human fasted-state simulated intestinal fluid (FaSSIF-V2), pH 6.8, LC-MS/MS, read-out: FaSSIF t1/2.

Read-outs that look alike come from different tables or passages of the source.

For the molecule `CCCC(=O)Nc1ncnn2c([C@]3(C#N)O[C@H](COC(=O)CC4CCCCC4)[C@@H](OC(=O)[C@@H](N)C(C)(C)C)[C@H]3O)ccc12` [Compound 1, (2R,3S,4R,5R)-5-(4-butyramidopyrrolo[2,1-f][1,2,4]triazin-7-yl)-5-cyano-2-((2-cyclohexylacetoxy)methyl)-4-hydroxytetrahydrofuran-3-yl (S)-2-amino-3,3-dimethylbutanoate], in data set [1], the Papp A→B at 90 min stood at 6.8 ×10⁻⁶ cm/s, the Papp B→A at 90 min stood at 8.72 ×10⁻⁶ cm/s and the efflux ratio at 90 min is 1.28. The half-life at 1 µM in data set [2] (setting [3]) is 1.61 h. The half-life at 1 µM in data set [2] (setting [4]) is more than 6.22 h.
As for `CCC(CC)C(=O)Nc1ncnn2c([C@]3(C#N)O[C@H](COC(=O)CC4CCCCC4)[C@@H](OC(=O)[C@@H](N)C(C)(C)C)[C@H]3O)ccc12` [Compound 2, (2R,3S,4R,5R)-5-cyano-2-((2-cyclohexylacetoxy)methyl)-5-(4-(2-ethylbutanamido)pyrrolo[2,1-f][1,2,4]triazin-7-yl)-4-hydroxytetrahydrofuran-3-yl (S)-2-amino-3,3-dimethylbutanoate], in data set [1], the Papp A→B at 90 min stood at 4.08 ×10⁻⁶ cm/s, the Papp B→A at 90 min is 6.13 ×10⁻⁶ cm/s and the efflux ratio at 90 min was 1.5. The half-life at 1 µM in data set [2] (setting [3]) is more than 6.22 h. Further, the half-life at 1 µM in data set [2] (setting [4]) was more than 6.22 h.
On to `COC(C)(C)C(=O)Nc1ncnn2c([C@]3(C#N)O[C@H](COC(=O)CC4CCCCC4)[C@@H](OC(=O)[C@@H](N)C(C)(C)C)[C@H]3O)ccc12` [Compound 3, (2R,3S,4R,5R)-5-cyano-2-((2-cyclohexylacetoxy)methyl)-4-hydroxy-5-(4-(2-methoxy-2-methylpropanamido)pyrrolo[2,1-f][1,2,4]triazin-7-yl)tetrahydrofuran-3-yl (S)-2-amino-3,3-dimethylbutanoate], for which, in data set [1], the Papp A→B at 90 min came out at 8.49 ×10⁻⁶ cm/s, the Papp B→A at 90 min was 9.3 ×10⁻⁶ cm/s and the efflux ratio at 90 min turned out to be 1.1. Also, the half-life at 1 µM in data set [2] (setting [3]) is 0.347 h. For the same molecule, the half-life at 1 µM in data set [2] (setting [4]) is more than 6.22 h.
Take `CC(C)(C)[C@@H](N)C(=O)OC[C@H]1O[C@@](C#N)(c2ccc3c(N)ncnn23)[C@H](O)[C@@H]1OC(=O)CC1CCCCC1` [Compound 37, ((2R,3S,4R,5R)-5-(4-aminopyrrolo[2,1-f][1,2,4]triazin-7-yl)-5-cyano-3-(2-cyclohexylacetoxy)-4-hydroxytetrahydrofuran-2-yl)methyl (R)-2-amino-3,3-dimethylbutanoate]: the efflux ratio at 90 min in data set [1] was 2.95. Further, the half-life at 1 µM in data set [2] (setting [3]) and in data set [2] (setting [4]) was more than 6.21 h each time.
As to `CCCCOC(C)(C)C(=O)Nc1ncnn2c([C@]3(C#N)O[C@H](COC(=O)CC4CCCC4)[C@@H](OC(=O)[C@@H](N)C(C)(C)C)[C@H]3O)ccc12` [Compound 71, (2R,3S,4R,5R)-5-(4-(2-butoxy-2-methylpropanamido)pyrrolo[2,1-f][1,2,4]triazin-7-yl)-5-cyano-2-((2-cyclopentylacetoxy)methyl)-4-hydroxytetrahydrofuran-3-yl(S)-2-amino-3,3-dimethylbutanoate], in data set [1], the Papp A→B at 90 min amounted to 0.67 ×10⁻⁶ cm/s, the Papp B→A at 90 min was determined as 8.18 ×10⁻⁶ cm/s and the efflux ratio at 90 min amounted to 12.1.
As to `CCCCOC(C)(C)C(=O)Nc1ncnn2c([C@]3(C#N)O[C@H](COC(=O)CC4CCCCCC4)[C@@H](OC(=O)[C@@H](N)C(C)(C)C)[C@H]3O)ccc12` [Compound 72, (2R,3S,4R,5R)-5-(4-(2-butoxy-2-methylpropanamido)pyrrolo[2,1-f][1,2,4]triazin-7-yl)-5-cyano-2-((2-cycloheptylacetoxy)methyl)-4-hydroxytetrahydrofuran-3-yl(S)-2-amino-3,3-dimethylbutanoate], in data set [1], the Papp A→B at 90 min was found to be 0.09 ×10⁻⁶ cm/s, the Papp B→A at 90 min was 7.6 ×10⁻⁶ cm/s and the efflux ratio at 90 min came to 88.8.
The corresponding values for `CCCCOC(C)(C)C(=O)Nc1ncnn2c([C@]3(C#N)O[C@H](COC(=O)CC4CCCCC4)[C@@H](OC(=O)[C@H](N)C(C)(C)C)[C@H]3O)ccc12` [Compound 73, (2R,3S,4R,5R)-5-(4-(2-butoxy-2-methylpropanamido)pyrrolo[2,1-f][1,2,4]triazin-7-yl)-5-cyano-2-((2-cyclohexylacetoxy)methyl)-4-hydroxytetrahydrofuran-3-yl (R)-2-amino-3,3-dimethylbutanoate] are 0.24 ×10⁻⁶ cm/s, 0.53 ×10⁻⁶ cm/s and 2.23.
The corresponding values for `CCCCOC(C)(C)C(=O)Nc1ncnn2c([C@]3(C#N)O[C@H](COC(=O)CC4CCCCC4)[C@@H](OC(=O)[C@@H](N)C(C)(C)C)[C@H]3O)ccc12` [Compound 74, (2R,3S,4R,5R)-5-(4-(2-butoxy-2-methylpropanamido)pyrrolo[2,1-f][1,2,4]triazin-7-yl)-5-cyano-2-((2-cyclohexylacetoxy)methyl)-4-hydroxytetrahydrofuran-3-yl (S)-2-amino-3,3-dimethylbutanoate] are 0.41 ×10⁻⁶ cm/s, 0.41 ×10⁻⁶ cm/s and 1.
Turning to `CCCCOC(C)(C)C(=O)Nc1ncnn2c([C@]3(C#N)O[C@H](COC(=O)CC4CCCCCC4)[C@@H](OC(=O)[C@H](N)C(C)(C)C)[C@H]3O)ccc12` [Compound 75, (2R,3S,4R,5R)-5-(4-(2-butoxy-2-methylpropanamido)pyrrolo[2,1-f][1,2,4]triazin-7-yl)-5-cyano-2-((2-cycloheptylacetoxy)methyl)-4-hydroxytetrahydrofuran-3-yl(R)-2-amino-3,3-dimethylbutanoate], in data set [1], the Papp A→B at 90 min is 0.22 ×10⁻⁶ cm/s, the Papp B→A at 90 min stood at 0.12 ×10⁻⁶ cm/s and the efflux ratio at 90 min is 0.52.
In the case of `CCC(CC)C(=O)Nc1ncnn2c([C@]3(C#N)O[C@H](COC(=O)CC4CCCC4)[C@@H](OC(=O)[C@H](N)C(C)(C)C)[C@H]3O)ccc12` [Compound 76, (2R,3S,4R,5R)-5-cyano-2-((2-cyclopentylacetoxy)methyl)-5-(4-(2-ethylbutanamido)pyrrolo[2,1-f][1,2,4]triazin-7-yl)-4-hydroxytetrahydrofuran-3-yl (R)-2-amino-3,3-dimethylbutanoate], in data set [1], the Papp A→B at 90 min came out at 2.5 ×10⁻⁶ cm/s, the Papp B→A at 90 min came out at 2.4 ×10⁻⁶ cm/s and the efflux ratio at 90 min is 1.
For `CCC(CC)C(=O)Nc1ncnn2c([C@]3(C#N)O[C@H](COC(=O)CC4CCCCCC4)[C@@H](OC(=O)[C@H](N)C(C)(C)C)[C@H]3O)ccc12` [Compound 77, (2R,3S,4R,5R)-5-cyano-2-((2-cycloheptylacetoxy)methyl)-5-(4-(2-ethylbutanamido)pyrrolo[2,1-f][1,2,4]triazin-7-yl)-4-hydroxytetrahydrofuran-3-yl (R)-2-amino-3,3-dimethylbutanoate] the same measures were 1 ×10⁻⁶ cm/s, 1.6 ×10⁻⁶ cm/s and 1.7.

For orientation: Papp A→B means the apparent permeability from the apical to the basolateral side of a cell layer. The low end stands for slow passage, the high end for fast passage. Usually Papp B→A stands for how fast a substance crosses the layer from the basolateral side. As a reminder, the efflux ratio is a quotient of directional permeabilities that is used to spot active efflux.

Values taken from patent US20250228882A1, “ORALLY-BIOAVAILABLE NUCLEOSIDE ANALOGS” (Venatorx Pharmaceuticals, Inc., priority 2022, published 2025).
